In general, IC50 refers to the point on the concentration scale where inhibition reaches its midpoint. Low values mean greater potency in that assay, high ones weaker potency in that assay. As usually defined, the Cmax is the peak of the concentration-time curve. As usually defined, the Tmax is the time at which the peak concentration occurs. The clearance is a measure of how efficiently the substance is removed, as volume per time. A high value points to a high capacity for elimination. For orientation: half-life means the time in which the quantity being followed falls by half. A high value points to slow decline. Broadly, the AUC(0-inf) is total exposure, with the tail of the curve extrapolated. Lower therefore signals less exposure. The term AUC(0-t) denotes exposure summed from dosing to a finite time, without extrapolation to infinity. A higher AUC(0-t) goes with high exposure.

Series [1] relates to CDK12 and CDK13 proteins. The experiment in a line: Degradation activity on CDK12/13 in 22RV1 cells (Western Blot). Format: cell-based. Particulars: for induction of degradation of CDK12 and CDK13 proteins: cell line and concentration not given there; for degradation of CDK12 and CDK13 proteins / degradation of CDK12 and CDK13 protein levels in cells / dose dependence of degradation of CDK12 and CDK13 proteins: 22RV1 cells; for degradation of CDK12 and CDK13 proteins: 100 nM, 6 h (FIG. 5); for degradation of CDK12 and CDK13 protein levels in cells: 500 nM, 6 hours, WB (FIG. 4); for dose dependence of degradation of CDK12 and CDK13 proteins: different concentrations, 6 h (FIG. 4B, FIG. 5). The method, then:
Experimental methods: The cell line, 22RV1 cell line was purchased from the American Type Culture Collection (ATCC). Conventional Western Blot was used for detection as follows: 22RV1 cells were seeded in a certain number in a 12-well plate, and cultured overnight in an incubator in an adherent manner. […] The cells were lysed with a lysis buffer, and samples were collected. Then, an appropriate amount of the samples was taken for SDS-PAGE electrophoresis. After electrophoresis, the proteins were transferred to nitrocellulose membranes using a semi-dry electro-transfer system. The nitrocellulose membrane was placed in a blocking solution (5% skim milk powder diluted in TBS containing 0.1% Tween 20) and blocked at room temperature for 2 h. The membranes were then placed in a primary antibody solution (1: 1000 diluted in TBS containing 0.1% Tween 20), respectively, and incubated at 4°C overnight. The cells were washed three times with TBS containing 0.1% Tween 20, each time for 15 min. The membrane was placed in a secondary antibody solution (horseradish peroxidase-labeled goat anti-rabbit IgG, diluted at 1:1000 in TBS containing 0.1% Tween 20) and reacted at room temperature for 1 h. After washing the membrane three times as above, the membrane was developed with ECL plus reagent and photographed using Amersham Imager 600 system.
For orientation: Immunoblotting shows a protein as a band on a membrane.

Series [2] relates to prostate cancer VCap cells. Briefly: Proliferation-inhibiting activity on VCap cells (CellTiter-Glo). Format: cell-based. As to conditions: Homo sapiens; VCap cell line, CellTiter-Glo (FIG. 6). The method, then:
The cell proliferation-inhibiting activity of the compounds was determined using the CellTiter-Glo Luminescent Cell Viability Assay (Promega, Madison, WI). The cells were seeded in a 96-well plate in their respective culture media and incubated at 37°C in a 5% CO2 incubator. After overnight incubation, serial dilutions of the compounds were prepared and added to the 96-well plate. A volume of CellTiter-Glo reagent equal to the volume of the cell culture medium present in each well was added (e.g., 100 microliters of the reagent was added to 100 microliters of the culture medium for the cells in the 96-well plate). The contents were mixed on an orbital shaker for 2 min to induce cell lysis. The 96-well plate was incubated at room temperature for 10 minutes to stabilize a luminescent signal. Luminescence was recorded: the luminescence signal of each well was acquired using an Infinite M1000 Pro plate reader (Tecan, Zürich, Switzerland), and the data were analyzed using GraphPad Prism software (GraphPad Software Inc, La Jolla, CA).
In general terms: Cellular ATP, detected with luciferase, serves as a proxy for viable cell number.

Series [3] can be described thus: Pharmacokinetics and bioavailability test in rats (Example 60). Format: in vivo. As to conditions: SD rats; for F: bioavailability calculated from AUC; for oral pharmacokinetic properties: summary in words of Tables 2-6; for Cmax / Tmax / clearance / half-life: Sprague-Dawley, rat, plasma. The method, then:
(§1) Pharmacokinetics and bioavailability tests in rats. SD rats were given a single oral (10 mg/kg), intravenous (2.5 mg/kg) and intraperitoneal (10 mg/kg) dose, followed by animal blood sample collection at appropriate time points. Heparin was added for anticoagulation, and the samples were centrifuged at 8000 rpm for 6 min. The supernatant was collected and stored at -20°C for HPLC-MS analysis. The blood samples underwent protein precipitation with acetonitrile at 12 000 rpm * 10 min, and the supernatant was used for HPCL-MS analysis. The data underwent parameter fitting with DAS2.0, to obtain compartmental model and non-compartmental model parameters, respectively. The oral bioavailability of the compounds was calculated based on the area under the plasma concentration-time curve (AUC) data. […] Table 2. Pharmacokinetic experimental results of compounds YJZ9069 and YJZ1102

Series [4] relates to CDK12 and CDK13 proteins. Briefly: Degradation activity on CDK12/13 in MDA-MB-231 cells (Western Blot). It counts as cell-based. Particulars: 0.1µM or 0.3µM, 15 h, WB (FIG. 1). The method, then: Experimental methods: The cell line MDA-MB-231 was purchased from the American Type Culture Collection (ATCC). Conventional Western Blot was used for detection, as follows: MDA-MB-231 cells were seeded at a density of 2 x 10^5/mL in a 12-well plate, with 1 mL per well, and cultured overnight in an incubator in an adherent manner. Then, a certain concentration of compounds was added to act for 15 h. The cells were lysed with a lysis buffer, and protein samples were collected. An appropriate amount of the sample was taken for SDS-PAGE electrophoresis. After electrophoresis, the protein was transferred to a polyvinylidene fluoride (PVDF) membrane using a wet electro-transfer system. The PVDF membrane after electro-transfer was cut into several required strips, which were then placed in a blocking solution (5% skim milk powder diluted in TBS containing 0.1% Tween 20) and blocked at room temperature for 1.5 h. A primary antibody solution was prepared by diluting a primary antibody against the corresponding target protein in TBS containing 0.1% Tween 20 according to the dilution requirements of different antibodies, such as 1:1000 (CST), 1:3000 (Proteintech, Bethyl), and 1:200 (Santacruz). The blocked membrane was placed in the corresponding primary antibody solution and incubated at 4°C for 12-14 h. Then, the cells were washed three times with TBS containing 0.1% Tween 20, each time for 5 min. After washing, the membrane was placed in a secondary antibody solution (horseradish peroxidase-labeled goat anti-rabbit IgG, diluted at 1:2000 in TBS containing 0.1% Tween 20) and reacted at room temperature for 2 h. After washing the membrane three times as above, the membrane was developed with StarSignal plus reagent (GenStar®) and Omni-ECL reagent (Yazyme®), and photographed with Amersham Imager 800 system.

Series [5] is described as follows: Pharmacokinetics and bioavailability test in rats (Example 57). Format: in vivo. As to conditions: SD rats; for MRT last: read-out: MRT(0-t); for MRT inf: read-out: MRT(0-∞). The method, then: as §1, with “Table 1.” for “Table 2.”, “of compound zlc-4-93” for “of compounds YJZ9069 and YJZ1102”
[6] abbreviates: Sprague-Dawley, rat, plasma, iv, i.v. 2.5 mg/kg.
[7] abbreviates: Sprague-Dawley, rat, plasma, Oral 10 mg/kg.

Where two headings read alike, the source gives them in different places.

For the compound `CN1C(=O)CCC(N2C(=O)c3cccc(OCC(=O)N4CCN(c5ccc(N(C(=O)NCc6ccccc6)[C@H]6CC[C@H](Nc7ncc8ccccc8n7)CC6)cc5)CC4)c3C2=O)C1=O` (some centres unmarked) [YJZ1078], in the series with CDK12 and CDK13 proteins [1], the “induction of degradation of CDK12 and CDK13 proteins” value is on record as “cannot effectively induce degradation”. The IC50 in series [2] is greater than 5000 nM.
For the compound `O=C1CCC(N2C(=O)c3cc(F)c(N4CCC(N5CCN(c6ccc(N(C(=O)NCc7ccccc7)[C@H]7CC[C@H](Nc8ncc9ccccc9n8)CC7)cn6)CC5)CC4)cc3C2=O)C(=O)N1` (some centres unmarked) [YJZ1206], in the series with CDK12 and CDK13 proteins [1], the “degradation of CDK12 and CDK13 proteins” value is “almost completely degrade”; the “degradation of CDK12 and CDK13 protein levels in cells” value (shortened to “degradation … in cells”) is recorded as “effectively degrade”; the “dose dependence of degradation of CDK12 and CDK13 proteins” value is “dose-dependent manner”. In addition, in series [3] (PO 10 mg/kg), the F is 39.16%, the Cmax came to 1130 ng/mL, the time of peak concentration (Tmax) was 6 h and the half-life was 6.24 h. In addition, in series [3], the oral pharmacokinetic properties result was “excellent”. Besides, in series [3] (IV 2.5 mg/kg), the Cmax came to 3120 ng/mL, the Tmax amounted to 0.08 h, the clearance was 4.29 mL/min/kg and the half-life is 5.15 h.
On to `O=C1CCC(N2C(=O)c3cc(F)c(N4CCC(N5CCN(c6ccc(N(C(=O)NCc7ccccc7)[C@H]7CC[C@H](Nc8ncc9ccccc9n8)CC7)cc6)CC5)CC4)cc3C2=O)C(=O)N1` (some centres unmarked) [YJZ1201], for which, in the series with CDK12 and CDK13 proteins [1], the “degradation of CDK12 and CDK13 proteins” value is on record as “almost completely degrade”; the “degradation … in cells” value was “effectively degrade”; the “dose dependence of degradation of CDK12 and CDK13 proteins” value was “dose-dependent manner”. In series [2], this compound gave an IC50 of 64.4 nM. For the same compound, in series [3] (PO 10 mg/kg), the F was 39.60%, the highest level (Cmax) was 1040 ng/mL, the Tmax turned out to be 6.67 h and the half-life is 12.4 h. Further, the oral pharmacokinetic properties result in series [3] was “excellent”. Also, in series [3] (IV 2.5 mg/kg), the Cmax was found to be 2510 ng/mL, the Tmax is 0.08 h, the clearance was 3.27 mL/min/kg and the half-life was 10.8 h.
In the case of `N#Cc1ccc(N[C@H]2CC[C@H](N(C(=O)NCc3ccccc3)c3ccc(N4CCC(CN5CCN(c6ccc7c(c6)C(=O)N(C6CCC(=O)NC6=O)C7=O)CC5)CC4)cc3)CC2)nc1` (some centres unmarked) [ZLC6-42], the “degradation … in cells” value in the series on CDK12 and CDK13 proteins [4] is given as “effectively degrade”.
Same read-out and setting: for `N#Cc1ccc(N[C@H]2CC[C@H](N(C(=O)NCc3ccccc3)c3ccc(N4CCN(CC5CN(c6cc7c(cc6F)C(=O)N(C6CCC(=O)NC6=O)C7=O)C5)CC4)cc3)CC2)nc1` (some centres unmarked) [ZLC7-36] the value was “effectively degrade”.
Consider `O=C1CCC(N2C(=O)c3ccc(N4CCC(N5CCN(c6ccc(N(C(=O)NCc7ccccc7)[C@H]7CC[C@H](Nc8ncc9ccccc9n8)CC7)cc6)CC5)CC4)cc3C2=O)C(=O)N1` (some centres unmarked) [YJZ1105, 3-benzyl-1-(4-(4-(1-(2-(2,6-dioxopiperidin-3-yl)-1,3-dioxoisoindol-5-yl)piperidin-4-yl)-piperazin-1-yl)phenyl)-1-((1r,4r)-4-(quinazolin-2-ylamino)cyclohexyl)urea], for which the “degradation … in cells” value in the series on CDK12 and CDK13 proteins [1] is reported as “effectively degrade”. Also, the IC50 in series [2] came out at 15.1 nM. In series [3] (PO 10 mg/kg), the F is 26.64%, the Cmax is 625 ng/mL, the Tmax was 6 h and the half-life was 7.2 h. Also, the oral pharmacokinetic properties result in series [3] is “excellent”. Besides, in series [3] (IV 2.5 mg/kg), the Cmax is 1390 ng/mL, the Tmax came to 0.08 h, the clearance was 4.8 mL/min/kg and the half-life is 7.05 h.
As for `N#Cc1ccc(N[C@H]2CC[C@H](N(C(=O)NCc3ccccc3)c3ccc(N4CCN(C[C@@H]5CCN(c6ccc7c(c6)C(=O)N(C6CCC(=O)NC6=O)C7=O)C5)CC4)cc3)CC2)nc1` (some centres unmarked) [ZLC5-106], the “degradation … in cells” value in the series with CDK12 and CDK13 proteins [4] is on record as “effectively degrade”.
Take `O=C1CCC(N2C(=O)c3cccc(NCCCCCCCCCC(=O)N4CCN(c5cccc(N(C(=O)NCc6ccccc6)[C@H]6CC[C@H](Nc7ncc8ccccc8n7)CC6)c5)CC4)c3C2=O)C(=O)N1` (some centres unmarked) [YJZ9055]: the “induction of degradation of CDK12 and CDK13 proteins” value in the series with CDK12 and CDK13 proteins [1] was “cannot effectively induce degradation”. Besides, in series [2], the IC50 stood at 2200 nM.
`N#Cc1ccc(N[C@H]2CC[C@H](N(C(=O)NCc3ccccc3)c3ccc(N4CCC(CN5CC6(C5)CN(c5ccc7c(c5)C(=O)N(C5CCC(=O)NC5=O)C7=O)C6)CC4)cc3)CC2)nc1` (some centres unmarked) [ZLC6-37]: the “degradation … in cells” value with CDK12 and CDK13 proteins [4] was “effectively degrade”.
`N#Cc1ccc(N[C@H]2CC[C@H](N(C(=O)NCc3ccccc3)c3ccc(N4CCN(C5CCN(c6ccc7c(c6)C(=O)N(C6CCC(=O)NC6=O)C7=O)CC5)CC4)cc3)CC2)nc1` (some centres unmarked) [zlc-4-93]: the F in series [5] (Oral 10 mg/kg, bioavailability calculated from AUC) was 16.46%. Moreover, the oral pharmacokinetic properties result in series [5] (summary in words of Table 1) was “excellent”. Further, in series [5] (setting [6]), the AUC(0-inf) came out at 4740 ng·h/mL, the AUC(0-t) is 4720 ng·h/mL, the highest level (Cmax) was 2590 ng/mL and the Tmax was determined as 0.08 h. In series [5] (setting [6]), the clearance is 9.85 mL/min/kg, the half-life is 2.38 h, the MRT last amounted to 2.37 h and the MRT inf was 2.44 h. In addition, in series [5] (setting [7]), the AUC(0-inf) was 3130 ng·h/mL, the AUC(0-t) was 3110 ng·h/mL, the Cmax was found to be 308 ng/mL and the Tmax is 4 h. Also, in series [5] (setting [7]), the half-life is 3.04 h, the MRT last is 6.06 h and the MRT inf came out at 6.19 h.
In the case of `N#Cc1ccc(N[C@H]2CC[C@H](N(C(=O)NCc3ccccc3)c3ccc(N4CCC5(CC4)CN(c4ccc6c(c4)C(=O)N(C4CCC(=O)NC4=O)C6=O)C5)cc3)CC2)nc1` (some centres unmarked) [ZLC6-103], the “degradation … in cells” value in the series on CDK12 and CDK13 proteins [4] was “effectively degrade”.

(Values after patent EP4671239A1, “ARYL SUBSTITUENT-CONTAINING DEGRADATION AGENT FOR CDK12/13, PREPARATION METHOD THEREFOR, AND PHARMACEUTICAL COMPOSITION AND USE THEREOF” (Shanghai Institute of Organic Chemistry, Chinese Academy of …, priority 2023, dated 2024).)
